# Source: article PMC2759517 (PLoS ONE, 2009)
# Where no end group is shown, it is not given here.
# Target: T1, HA-tagged PA of FluB (Influenza B virus, UniProt Q9QLI9)
# T1 construct: upstream of the initiation codon and antisense primers with a deleted stop codon; made in house; host or cells: human 293T cells, transiently transfected; unpurified cell lysate
# Experiment: biochemical
# Assay type: binding
# T1 sequence (Q9QLI9 whole entry): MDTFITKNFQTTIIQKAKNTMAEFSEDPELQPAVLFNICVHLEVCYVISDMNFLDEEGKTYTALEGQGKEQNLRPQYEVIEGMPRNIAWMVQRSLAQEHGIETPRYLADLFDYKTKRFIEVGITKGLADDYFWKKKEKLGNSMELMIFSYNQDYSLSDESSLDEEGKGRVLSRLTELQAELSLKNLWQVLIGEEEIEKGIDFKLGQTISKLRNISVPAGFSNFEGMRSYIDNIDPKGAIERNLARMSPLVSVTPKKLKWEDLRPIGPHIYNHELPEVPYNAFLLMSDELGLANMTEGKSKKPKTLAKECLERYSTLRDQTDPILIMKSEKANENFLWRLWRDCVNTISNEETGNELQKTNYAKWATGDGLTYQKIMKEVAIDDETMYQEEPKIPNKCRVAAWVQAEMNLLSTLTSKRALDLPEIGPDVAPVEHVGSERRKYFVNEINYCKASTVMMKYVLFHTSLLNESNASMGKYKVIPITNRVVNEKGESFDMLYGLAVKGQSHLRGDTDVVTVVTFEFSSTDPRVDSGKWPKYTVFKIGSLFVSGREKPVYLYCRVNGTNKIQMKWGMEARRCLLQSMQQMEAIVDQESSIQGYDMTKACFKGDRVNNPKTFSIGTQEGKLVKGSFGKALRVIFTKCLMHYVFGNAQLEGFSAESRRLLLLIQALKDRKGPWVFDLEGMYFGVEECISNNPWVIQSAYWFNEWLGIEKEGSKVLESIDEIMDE
row,Compound,IC50
1,"CC[C@H](C)[C@H](NC(=O)[C@H](CC(N)=O)NC(=O)[C@@H](N)CCSC)C(=O)N[C@@H](CC(N)=O)C(=O)N1CCC[C@H]1C(=O)N[C@H](C(=O)N[C@@H](CC(C)C)C(=O)N[C@@H](CC(C)C)C(=O)N[C@@H](Cc1ccccc1)C(=O)N[C@@H](CC(C)C)C(=O)N[C@@H](CCCCN)C(=O)N[C@H](C(=O)N1CCC[C@H]1C(=O)N[C@@H](C)C(=O)N[C@@H](CCC(N)=O)C(N)=O)C(C)C)[C@@H](C)O [PB11-15 AD2N,V3I]",> 3 µM
2,MDVNPCLLFLKVPAQ-NH2 [PB11-15 AT6C],> 3 µM
3,MDVNPFLLFLKVPAQ-NH2 [PB11-15 AT6F],0.75 µM
4,MDVNPHLLFLKVPAQ-NH2 [PB11-15 AT6H],> 3 µM
5,MDVNPTFLFLKVPAQ-NH2 [PB11-15 AL7F],> 3 µM
6,"MDVNPTLLFIDVPAQ-NH2 [PB11-15 AL10I,K11D]",> 3 µM
7,MDVNPWLLFLKVPAQ-NH2 [PB11-15 AT6W],0.628 µM
8,"MDVNPYFLFLKVPAQ-NH2 [PB11-15 AT6Y,L7F]",0.345 µM
9,MDVNPYLLFLKVPAQ-NH2 [PB11-15 AT6Y],0.107 µM
10,"MNINPTLLFLKVPIQ-NH2 [PB11-15 AD2N,V3I,L14I]",> 3 µM
